Assay [1] addresses T1, hormone sensitive lipase (Homo sapiens, UniProt Q05469).
T1 sequence (Q05469 1-1076): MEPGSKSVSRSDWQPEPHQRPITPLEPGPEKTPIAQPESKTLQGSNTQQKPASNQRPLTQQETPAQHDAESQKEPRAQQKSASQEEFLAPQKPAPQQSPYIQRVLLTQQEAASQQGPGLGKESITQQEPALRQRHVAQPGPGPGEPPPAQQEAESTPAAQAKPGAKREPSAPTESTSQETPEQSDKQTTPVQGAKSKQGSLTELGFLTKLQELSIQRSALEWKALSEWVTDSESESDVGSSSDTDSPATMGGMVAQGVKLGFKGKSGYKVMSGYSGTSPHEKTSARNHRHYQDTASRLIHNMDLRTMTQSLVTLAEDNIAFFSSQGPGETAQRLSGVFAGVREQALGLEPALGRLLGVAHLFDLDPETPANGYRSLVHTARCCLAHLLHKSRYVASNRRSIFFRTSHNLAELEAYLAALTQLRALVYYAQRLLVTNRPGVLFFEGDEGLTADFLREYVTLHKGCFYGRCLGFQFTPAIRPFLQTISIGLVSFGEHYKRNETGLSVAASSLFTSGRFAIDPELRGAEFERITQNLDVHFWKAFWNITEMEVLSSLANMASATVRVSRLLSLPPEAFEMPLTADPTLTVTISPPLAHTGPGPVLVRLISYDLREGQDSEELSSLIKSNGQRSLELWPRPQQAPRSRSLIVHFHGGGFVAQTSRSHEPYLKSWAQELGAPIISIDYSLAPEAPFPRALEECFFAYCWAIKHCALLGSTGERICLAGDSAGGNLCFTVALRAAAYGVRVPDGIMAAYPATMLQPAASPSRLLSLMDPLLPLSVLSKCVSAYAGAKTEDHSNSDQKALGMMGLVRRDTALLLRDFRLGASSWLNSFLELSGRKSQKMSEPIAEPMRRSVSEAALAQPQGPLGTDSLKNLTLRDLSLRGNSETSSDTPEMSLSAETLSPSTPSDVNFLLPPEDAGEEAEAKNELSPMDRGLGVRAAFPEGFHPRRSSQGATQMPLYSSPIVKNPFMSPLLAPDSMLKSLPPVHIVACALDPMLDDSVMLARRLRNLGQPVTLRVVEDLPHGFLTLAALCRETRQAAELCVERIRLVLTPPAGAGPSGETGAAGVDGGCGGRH
Kind of assay: TEST 3190.1 HSL-FL: percent inhibition of hormone sensitive lipase at 10 μM, fluorochrome-labeled triacylglyceride emulsion. In kind it is biochemical. Conditions: 10 μM sample concentration; percent activity relative to a non-inhibited sample; 30 min preincubation 25° C., 120 min at 37° C. On the procedure:
3190.1: Assay for determination of percent inhibition of hormone sensitive lipase by compound at 10 μM sample concentration.
A lipid emulsion with fluorochrome-labeled triacylglyceride and phospholipid is used as substrate with a standard concentration of highly purified HSL (12 μg/mL initial concentration corresponding to 600 ng/mL final concentration). BSA is added as product receptor. The transfer of the fluorochrome from the lipid phase to the water (BSA) phase changes the fluorescent properties of the fluorochrome. The changes can be monitored on a fluorimeter with an excitation wavelength of 450 nm and an emission wavelength of 545 nm.
Compound and HSL (2 μL compound, 10 μL enzyme and 70 μL PED-BSA buffer) is pre-incubated for 30 min at 25° C. before addition of substrate (100 μL). Amount of formed product is measured after 120 min incubation at 37° C.
Results are given as percent activity relative to a non-inhibited sample (no compound).

Assay [2] deals with T2, HSL (Homo sapiens, UniProt Q05469).
T2 sequence (Q05469 1-1076): T1 sequence (Q05469 1-1076)
Briefly: TEST 3180.2 HSL: percent inhibition at 10 μM, 3H-Triolein lipid emulsion. In kind it is biochemical. Conditions: 10 μM concentration; percent activity relative to an un-inhibited sample; 30 min preincubation, 30 min reaction at 25° C.; read-out: TEST 3180.2 HSL Activity (%).

Data on 39 compounds can be found in patent publication US7037905B2, “Pharmaceutical use of boronic acids and esters thereof” (Novo Nordisk A/S, priority 2002, dated 2006).

SMILES strings stand for the structures.

`CC1(C)OB(c2ccc(Cl)s2)OC1(C)C` [Example 1, 2-(5-Chlorothiophen-2-yl)-4,4,5,5-tetramethyl-[1,3,2]dioxaborolane] came in with an activity at 10 µM in assay [1] of 17%.

In assay [1], `CC1(C)COB(c2ccc(Cl)s2)OC1` [Example 2, 2-(5-Chlorothiophen-2-yl)-5,5-dimethyl-[1,3,2]dioxaborinane] gave an activity at 10 µM of 17%. Same read-out and setting: under `Clc1ccc(B2OCCNCCO2)s1` [Example 3, 2-(5-Chlorothiophen-2-yl)-[1,3,6,2]dioxazaborocane] stands 19%. On the same count and under the same terms, under `Fc1cc(F)cc(B2OCCNCCO2)c1` [Example 4, 2-(3,5-Difluorophenyl)-[1,3,6,2]dioxazaborocane] stands 32%.

In assay [1], `Brc1cccc(B2OCCNCCO2)c1` [Example 5, 2-(3-Bromophenyl)-[1,3,6,2]dioxazaborocane] gave an activity at 10 µM of 34%. Same read-out and setting: under `Clc1cccc(B2OCCNCCO2)c1` [Example 6, 2-(3-Chlorophenyl)-[1,3,6,2]dioxazaborocane] stands 36%; under `Fc1cccc(B2OCCNCCO2)c1` [Example 7, 2-(3-Fluorophenyl)-[1,3,6,2]dioxazaborocane], 80%; under `FC(F)(F)c1cccc(B2OCCNCCO2)c1` [Example 8, 2-(3-Trifluoromethylphenyl)-[1,3,6,2]dioxazaborocane], 29%. The same measure, in the same setting: then `Fc1cc(B2OCCNCCO2)cc(F)c1F` [Example 9, 2-(3,4,5-Trifluorophenyl)-[1,3,6,2]dioxazaborocane], with 32%. For `CC1(C)COB(c2cccc(Cl)c2)OC1` [Example 10, 2-(3-Chlorophenyl)-5,5-dimethyl-[1,3,2]dioxaborinane], the activity at 10 µM in assay [1] was 39%. Regarding `CC1(C)COB(c2cccc(C(F)(F)F)c2)OC1` [Example 11, 5,5-Dimethyl-2-(3-trifluoromethylphenyl)-[1,3,2]dioxaborinane], in assay [1], the activity at 10 µM is 31%.

As for `COc1ccc(Cl)cc1B1OCCNCCO1` [Example 12, 2-(5-Chloro-2-methoxyphenyl)-[1,3,6,2]dioxazaborocane], in assay [1], the activity at 10 µM was 39%. The same measure, in the same setting: under `FC(F)(F)Oc1cccc(B2OCCNCCO2)c1` [Example 13, 2-(3-Trifluoromethoxyphenyl)-[1,3,6,2]dioxazaborocane] stands 26%; under `Clc1cc(Cl)cc(B2OCCNCCO2)c1` [Example 14, 2-(3,5-Dichlorophenyl)-[1,3,6,2]dioxazaborocane], 40%; under `Fc1ccc(B2OCCNCCO2)cc1Cl` [Example 15, 2-(3-Chloro-4-fluorophenyl)-[1,3,6,2]dioxazaborocane], 39%. On the same count and under the same terms, then `Cc1csc(B2OCCNCCO2)c1` [Example 16, 2-(4-Methylthiophen-2-yl)-[1,3,6,2]dioxazaborocane], with 61%; and `CC1(C)COB(c2cccc(Br)c2)OC1` [Example 17, 2-(3-Bromophenyl)-5,5-dimethyl-[1,3,2]dioxaborinane], with 11%. For the compound `COc1ccc(Cl)cc1B1OCC(C)(C)CO1` [Example 18, 2-(5-Chloro-2-methoxyphenyl)-5,5-dimethyl-[1,3,2]dioxaborinane], the activity at 10 µM in assay [1] is 43%. The same measure, in the same setting: then `CC1(C)COB(c2cc(F)c(F)c(F)c2)OC1` [Example 19, 5,5-Dimethyl-2-(3,4,5-trifluorophenyl)-[1,3,2]dioxaborinane], with 49%; and `CC1(C)COB(c2cccc(OC(F)(F)F)c2)OC1` [Example 20, 5,5-Dimethyl-2-(3-trifluoromethoxyphenyl)-[1,3,2]dioxaborinane], with 27%. On the same count and under the same terms, then `CC1(C)COB(c2cc(Cl)cc(Cl)c2)OC1` [Example 21, 2-(3,5-Dichlorophenyl)-5,5-dimethyl-[1,3,2]dioxaborinane], with 42%; and `CC1(C)COB(c2ccc(F)c(Cl)c2)OC1` [Example 22, 2-(3-Chloro-4-fluorophenyl)-5,5-dimethyl-[1,3,2]dioxaborinane], with 31%. On the same count and under the same terms, under `CC1(C)COB(c2cccc(F)c2)OC1` [Example 23, 2-(3-Fluorophenyl)-5,5-dimethyl-[1,3,2]dioxaborinane] stands 46%; under `Cc1csc(B2OCC(C)(C)CO2)c1` [Example 24, 5,5-Dimethyl-2-(4-methylthiophen-2-yl)-[1,3,2]dioxaborinane], 58%. On to `CC1(C)OB(c2cccc(Br)c2)OC1(C)C` [Example 25, 2-(3-Bromophenyl)-4,4,5,5-tetramethyl-[1,3,2]dioxaborolane], for which the activity at 10 µM in assay [1] came out at 28%.

With `CC1(C)OB(c2cccc(OC(F)(F)F)c2)OC1(C)C` [Example 27, 4,4,5,5-Tetramethyl-2-(3-trifluoromethoxyphenyl)-[1,3,2]dioxaborolane], the activity at 10 µM in assay [1] was 29%.

In the case of `CC1(C)OB(c2cc(Cl)cc(Cl)c2)OC1(C)C` [Example 28, 2-(3,5-Dichlorophenyl)-4,4,5,5-tetramethyl-[1,3,2]dioxaborolane], the activity at 10 µM in assay [1] was 43%. Regarding `CC1(C)OB(c2ccc(F)c(Cl)c2)OC1(C)C` [Example 29, 2-(3-Chloro-4-fluorophenyl)-4,4,5,5-tetramethyl-[1,3,2]dioxaborolane], the activity at 10 µM in assay [1] was 36%. Same read-out and setting: then `CC1(C)OB(c2cccc(Cl)c2)OC1(C)C` [Example 30, 2-(3-Chlorophenyl)-4,4,5,5-tetramethyl-[1,3,2]dioxaborolane], with 40%; and `CC1(C)OB(c2cccc(C(F)(F)F)c2)OC1(C)C` [Example 31, 4,4,5,5-Tetramethyl-2-(3-trifluoromethylphenyl)-[1,3,2]dioxaborolane], with 27%; and `Cc1csc(B2OC(C)(C)C(C)(C)O2)c1` [Example 32, 4,4,5,5-Tetramethyl-2-(4-methylthiophen-2-yl)-[1,3,2]dioxaborolane], with 52%. Still for that read-out and setting: then `OB(O)c1ccc(Cl)c(Cl)c1` [Example 74, 3,4-Dichlorophenylboronic acid], with 53%; and `OB(O)c1ccc2[nH]ccc2c1` [Example 75, 5-INDOLYL BORONIC ACID], with 100%; and `O=Cc1cccc(B(O)O)c1` [Example 76, 3-Formylphenylboronic acid], with 80%. On the same count and under the same terms, then `CN(C)C(=O)c1ccc(B(O)O)cc1` [Example 77, 4-(N,N-DIMETHYLCARBAMOYL)PHENYLBORONIC ACID], with 98%.

Regarding `N#Cc1ccc(B(O)O)s1` [Example 95, 5-Cyanothiophene-2-boronic acid], the activity at 10 µM in assay [2] was found to be 49%.

As to `CC(=O)c1ccc(B(O)O)s1` [Example 96, 5-Acetylthiophene-2-boronic acid], the activity at 10 µM in assay [2] is 68%. Still for that read-out and setting: then `OB(O)c1cccs1` [Example 97, Thiophene-2-boronic acid], with 66%. The same measure, in the same setting: then `OB(O)c1sccc1Br` [Example 98, 3-Bromothiophene-2-boronic acid], with 84%.
